From patent US8962651B2, “Compounds for the treatment of hepatitis C” (Bristol-Myers Squibb Company, priority 2013, dated 2015)
Where two headings read alike, the source gives them in different places.

How the values were obtained:
[1] = tested on: genotype 1b (Con-1) HCV replicon; test: HCV replicon luciferase assay; assay type: cell-based; details: Hepatitis C virus, Huh-7, 72 h, 1b replicon, Huh-7 cells, Renilla luciferase, 3 days incubation
Procedure: The cell lines used to evaluate compounds consist of a human hepatocyte derived cell line (Huh-7) that constitutively expresses a genotype 1b (Con-1) HCV replicon or a genotype 1b (Con-1) HCV replicon with an asparagine replacing the cysteine at amino acid 316, or a genotype 2a (JFH-1) replicon, containing a Renilla luciferase reporter gene. These cells were maintained in Dulbecco's modified Eagle medium (DMEM) containing 10% FBS, 100 U/mL penicillin/streptomycin and 1.0 mg/mL G418.
After 3 days incubation at 37° C., cells were analyzed for Renilla Luciferase activity using the EnduRen substrate (Promega cat #E6485) according to the manufacturer's directions. Briefly, the EnduRen substrate was diluted in DMEM and then added to the plates to a final concentration of 7.5 μM. The plates were incubated for at least 1 h at 37° C. then read on a Viewlux Imager (PerkinElmer) using a luminescence program.

[2] = molecular target: HCV NS5B (Hepatitis C virus genotype 1b (isolate Con1) (HCV), UniProt Q9WMX2); test: HCV NS5B RdRp enzyme assay; assay type: biochemical, HCV genotype 1b (Con1)
Procedure: Each untagged protein was expressed with an 18 amino acid C-terminal truncation to enhance the solubility. The E. coli competent cell line BL21(DE3) was used for expression of the protein. […] The cultures were cooled to 20° C. and induced with 1 mM IPTG. Fresh ampicillin was added to a final concentration of 50 μg/mL and the cells were grown overnight at 20° C.
The lysis buffer consisted of 20 mM Tris-HCl, pH 7.4, 500 mM NaCl, 0.5% triton X-100, 1 mM DTT, 1 mM EDTA, 20% glycerol, 0.5 mg/mL lysozyme, 10 mM MgCl2, 15 ug/mL deoxyribonuclease I, and Complete TM protease inhibitor tablets (Roche). After addition of the lysis buffer, frozen cell pellets were resuspended using a tissue homogenizer. To reduce the viscosity of the sample, aliquots of the lysate were sonicated on ice using a microtip attached to a Branson sonicator. The sonicated lysate was centrifuged at 100,000×g for 30 minutes at 4° C. and filtered through a 0.2 μm filter unit (Corning).
The protein was purified using two sequential chromatography steps: Heparin sepharose CL-6B and polyU sepharose 4B. The chromatography buffers were identical to the lysis buffer but contained no lysozyme, deoxyribonuclease I, MgCl2 or protease inhibitor and the NaCl concentration of the buffer was adjusted according to the requirements for charging the protein onto the column. Each column was eluted with a NaCl gradient which varied in length from 5-50 column volumes depending on the column type. […] The enzyme was aliquoted and stored at −80° C.
An on-bead solid phase homogeneous assay was used in a 384-well format to assess NS5B inhibitors (WangY-K, Rigat K, Roberts S, and Gao M (2006) Anal Biochem, 359: 106-111). The biotinylated oligo dT12 primer was captured on streptavidin-coupled imaging beads (GE, RPNQ0261) by mixing primer and beads in 1× buffer and incubating at room temperature for three hours. Unbound primer was removed after centrifugation. The primer-bound beads were resuspended in 3× reaction mix (20 mM Hepes buffer, pH 7.5, dT primer coupled beads, poly A template, ^3H-UTP, and RNAse inhibitor (Promega N2515)). Compounds were serially diluted 1:3 in DMSO and aliquoted into assay plates. […]
Reactions were allowed to proceed for 24 hours at 30° C. and terminated by the addition of 50 mM EDTA (5 μL). After incubating for at least 15 minutes, plates were read on an Amersham LEADseeker multimodality imaging system.
IC50 values for compounds were determined using ten different [I]. IC50 values were calculated from the inhibition using the four-parameter logistic formula y=A+((B−A)/(1+((C/x)^D))), where A and B denote minimal and maximal % inhibition, respectively, C is the IC50, D is hill slope and x represents compound concentration.

[3] = tested on: HCV; details: cited from earlier work
[4] = extended dosing, combination with interferon and ribavirin; cited from earlier work
[5] = 1b enzyme, 7 nM NS5B, 24 hours at 30° C., read-out: IC50

HCV NS5B, sequence (Q9WMX2 2420-2992): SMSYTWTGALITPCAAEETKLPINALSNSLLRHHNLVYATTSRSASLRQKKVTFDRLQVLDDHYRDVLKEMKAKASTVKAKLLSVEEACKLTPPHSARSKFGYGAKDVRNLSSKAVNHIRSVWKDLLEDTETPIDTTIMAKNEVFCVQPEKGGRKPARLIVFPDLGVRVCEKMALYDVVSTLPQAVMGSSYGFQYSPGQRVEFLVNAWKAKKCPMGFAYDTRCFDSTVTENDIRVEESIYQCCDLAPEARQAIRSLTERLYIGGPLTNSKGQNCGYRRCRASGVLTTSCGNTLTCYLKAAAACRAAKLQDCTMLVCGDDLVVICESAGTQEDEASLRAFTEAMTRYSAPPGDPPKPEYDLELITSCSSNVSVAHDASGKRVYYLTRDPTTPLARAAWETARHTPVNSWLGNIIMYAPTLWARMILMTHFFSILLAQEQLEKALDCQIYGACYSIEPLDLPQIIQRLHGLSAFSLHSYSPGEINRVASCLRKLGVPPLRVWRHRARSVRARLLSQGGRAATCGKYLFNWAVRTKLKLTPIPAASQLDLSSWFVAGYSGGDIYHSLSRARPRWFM

Q: For `CNC(=O)c1c(-c2ccc(F)cc2)oc2nc(CCC(F)(F)F)c(-c3cccc(C(=O)NC4(c5ncon5)CCC4)c3)cc12` [Example 4, 5-(3-((1-(1,2,4-oxadiazol-3-yl)cyclobutyl)carbamoyl)phenyl)-2-(4-fluorophenyl)-N-methyl-6-(3,3,3-trifluoropropyl)furo[2,3-b]pyridine-3-carboxamide], which EC50 [1] is on record?
A: 2.41 nM

Q: What about the IC50 [2, 5] of the same compound?
A: 2.05 nM

Q: What does the source list for `CNC(=O)c1c(-c2ccc(F)cc2)oc2nc(CCC(F)(F)F)c(-c3cccc(C(=O)NC(C)(C)c4nc(C)no4)c3)cc12` [Example 9, 2-(4-fluorophenyl)-N-methyl-5-(3-((2-(3-methyl-1,2,4-oxadiazol-5-yl)propan-2-yl)carbamoyl)phenyl)-6-(3,3,3-trifluoropropyl)furo[2,3-b]pyridine-3-carboxamide]?
A: EC50 [1]: 2.11 nM; IC50 [2, 5]: 2.87 nM

Q: Which results are given for `CNC(=O)c1c(-c2ccc(F)cc2)oc2nc(NCC(F)(F)F)c(-c3ccc(F)c(C(=O)NC(C)(C)c4ncon4)c3)cc12` [Example 13, 5-(3-((2-(1,2,4-oxadiazol-3-yl)propan-2-yl)carbamoyl)-4-fluorophenyl)-2-(4-fluorophenyl)-N-methyl-6-((2,2,2-trifluoroethyl)amino)furo[2,3-b]pyridine-3-carboxamide]?
A: EC50 [1]: 5.76 nM; IC50 [2, 5]: 3.42 nM

Q: Which IC50 [2] does the source give for `[2H]C([2H])([2H])Oc1ncc(-c2cc3c(C(=O)NC)c(-c4ccc(F)cc4)oc3nc2CCC(F)(F)F)cc1C(=O)NC(c1ncon1)(C([2H])([2H])[2H])C([2H])([2H])[2H]` [Example 17, 5-[2-(4-fluorophenyl)-3-(methylcarbamoyl)-6-(3,3,3-trifluoropropyl)furo[2,3-b]pyridin-5-yl]-2-(^2H3)methoxy-N-[2-(1,2,4-oxadiazol-3-yl)(^2H6)propan-2-yl]pyridine-3-carboxamide] here?
A: 2.4 nM

Q: What does the source list for `CNC(=O)c1c(-c2ccc(F)cc2)oc2cc(N(CCO)S(C)(=O)=O)c(C3CC3)cc12` [HCV-796]?
A: HCV RNA levels in patients ([3]; single agent, transient decrease then rebound during dosing): reduce HCV RNA levels in patients; hepatic toxicity [4]: hepatic toxicity observed during extended dosing of the combination regimens

Q: Which sustained efficacy ([3]; combination therapy) does the source give for alpha-interferon and ribavirin here?
A: 40 % of patients
